25 molecules from US20230322767A1, “ARYL SUBSTITUTED PYRROLO-PYRIDINONES AND THERAPEUTIC USES THEREOF” (Bayer Aktiengesellschaft, priority 2020, published 2023) can be followed below.

In one assay the target is wild-type Epidermal Growth Factor Receptor (EGFR) (Homo sapiens (Human), UniProt P00533). Description: WT-EGFR Kinase Assay (TR-FRET, 2 mM ATP). Type of assay: biochemical. To be noted: EGFR Wildtyp 2 mM ATP IC50 [mol/l] (median), median or individual measurements. The text has this: Inhibitory activity of compounds of the present invention against wild-type Epidermal Growth Factor Receptor (EGFR) was quantified employing the TR-FRET based EGFR assay as described in the following paragraphs.
Chain of wild-type Epidermal Growth Factor Receptor (EGFR) (P00533 669-1210): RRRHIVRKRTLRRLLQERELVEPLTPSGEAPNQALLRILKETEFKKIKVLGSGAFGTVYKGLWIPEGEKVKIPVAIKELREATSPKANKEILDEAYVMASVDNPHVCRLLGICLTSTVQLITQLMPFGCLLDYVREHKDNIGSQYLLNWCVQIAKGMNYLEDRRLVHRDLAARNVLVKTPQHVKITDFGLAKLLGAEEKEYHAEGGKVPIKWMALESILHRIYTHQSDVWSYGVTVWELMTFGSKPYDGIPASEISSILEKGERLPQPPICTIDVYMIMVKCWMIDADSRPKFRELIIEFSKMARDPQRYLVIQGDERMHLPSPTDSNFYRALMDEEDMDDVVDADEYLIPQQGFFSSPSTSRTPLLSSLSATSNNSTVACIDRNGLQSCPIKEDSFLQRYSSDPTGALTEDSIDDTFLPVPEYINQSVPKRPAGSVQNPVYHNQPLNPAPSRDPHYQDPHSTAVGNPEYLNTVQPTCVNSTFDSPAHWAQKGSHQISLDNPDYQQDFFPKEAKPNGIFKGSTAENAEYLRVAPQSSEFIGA
Recombinant fusion protein of N-terminal Glutathion-S-Transferase (GST) and a fragment of human EGFR (amino acids R669 to A1210), expressed in Sf9 insect cells and purified via affinity chromatography using Glutathion Sepharose as described above, was used as kinase. As substrate for the kinase reaction the biotinylated peptide biotin-Ahx-[…] (C-terminus in amide form) was used which can be purchased e.g. form the company Biosynthan GmbH (Berlin-Buch, Germany).
For the assay 50 nl of a 100 fold concentrated solution of the test compound in DMSO was pipetted into either a black low volume 384 well microtiter plate or a black 1536 well microtiter plate (both Greiner Bio-One, Frickenhausen, Germany), 2 μL of a solution of EGFR in aqueous assay buffer [50 mM Hepes pH 7.0, 10 mM MgCl2, 1 mM dithiothreitol, 0.5 mM EGTA, 0.3 mM activated sodium ortho-vanadate, 0.005% (w/v) bovine serum albumin, 0.005% (v/v) Tween-20] were added and the mixture was incubated for 15 min at 22° C. to allow pre-binding of the test compounds to the enzyme before the start of the kinase reaction. […] The concentration of EGFR was adjusted depending of the activity of the enzyme lot and was chosen appropriate to have the assay in the linear range, typical concentration was […]. The reaction was stopped by the addition of 3 μL of a solution of HTRF detection reagents (83.3 nM streptavidine-XL665 [Cisbio Bioassays, Codolet, France] and 1.67 nM PT66-Tb-Cryptate, a terbium-cryptate labelled anti-phospho-tyrosine antibody from Cisbio Bioassays [instead of the PT66-Tb-cryptate PT66-Eu-Chelate from Perkin Elmer can also be used]) in an aqueous EDTA-solution (133.3 mM EDTA, 0.2% (w/v) bovine serum albumin in 50 mM HEPES pH 7.5).
The resulting mixture was incubated 1 h at 22° C. to allow the binding of the biotinylated phosphorylated peptide to the streptavidine-XL665 and the PT66-Tb-Cryptate. Subsequently the amount of phosphorylated substrate was evaluated by measurement of the resonance energy transfer from the PT66-Tb-Cryptate to the streptavidine-XL665. Therefore, the fluorescence emissions at 620 nm and 665 nm after excitation at 337 nm were measured in a HTRF reader, e.g. a Pherastar (BMG Labtechnologies, Offenburg, Germany) or a Viewlux (Perkin-Elmer). The ratio of the emissions at 665 nm and at 622 nm was taken as the measure for the amount of phosphorylated substrate.
`CN1CCc2[nH]c(-c3ccnc(NC(=O)C(CC(F)F)c4ccc(F)cc4)c3)c(-c3cccnc3)c2C1=O` (racemic) [Example 009, 4,4-difluoro-2-(4-fluorophenyl)-N-{4-[5-methyl-4-oxo-3-(pyridin-3-yl)-4,5,6,7-tetrahydro-1H-pyrrolo[3,2-c]pyridin-2-yl]pyridin-2-yl}butanamide] came in with an IC50 above 20 µM.

For `CC(C(=O)Nc1cc(-c2[nH]c3c(CC(F)(F)F)cn(C)c(=O)c3c2-c2ccccc2)ccn1)c1ccc(F)cc1` (single isomer, unassigned; (+)) [Example 015, (+)-2-(4-fluorophenyl)-N-{4-[5-methyl-4-oxo-3-phenyl-7-(2,2,2-trifluoroethyl)-4,5-dihydro-1H-pyrrolo[3,2-c]pyridin-2-yl]pyridin-2-yl}propanamide], the IC50 is 1.91 µM. On to `CC(C(=O)Nc1cc(-c2[nH]c3c(CC(F)(F)F)cn(C)c(=O)c3c2-c2ccc(F)cc2)ccn1)c1ccc(F)cc1` (single isomer, unassigned; (-)) [Example 023, (-)-2-(4-fluorophenyl)-N-{4-[3-(4-fluorophenyl)-5-methyl-4-oxo-7-(2,2,2-trifluoroethyl)-4,5-dihydro-1H-pyrrolo[3,2-c]pyridin-2-yl]pyridin-2-yl}propanamide], for which the IC50 is above 20 µM. `CC(C(=O)Nc1cc(-c2[nH]c3c(c2-c2ccccc2)C(=O)N(C)C2(CCC2)C3)ccn1)c1ccc(F)cc1` (single isomer, unassigned; (-)) [Example 053, (-)-2-(4-fluorophenyl)-N-[4-(5′-methyl-4′-oxo-3′-phenyl-1′,4′,5′,7′-tetrahydrospiro[cyclobutane-1,6′-pyrrolo[3,2-c]pyridin]-2′-yl)pyridin-2-yl]propanamide]: the IC50 is above 20 µM. `Cc1cn(C)c(=O)c2c(-c3ccc(F)cc3)c(-c3ccnc(NC(=O)C(CC(F)F)c4ccc(F)cc4)c3)[nH]c12` (single isomer, unassigned; (-)) [Example 035, (-)-4,4-difluoro-2-(4-fluorophenyl)-N-{4-[3-(4-fluorophenyl)-5,7-dimethyl-4-oxo-4,5-dihydro-1H-pyrrolo[3,2-c]pyridin-2-yl]pyridin-2-yl}butanamide] yielded an IC50 above 20 µM. In turn, `CC(C(=O)Nc1cc(-c2[nH]c3c(c2-c2ccccc2)C(=O)N(C)C2(CCC2)C3)ccn1)c1ccc(F)cc1` (racemic) [Example 052, 2-(4-fluorophenyl)-N-[4-(5′-methyl-4′-oxo-3′-phenyl-1′,4′,5′,7′-tetrahydrospiro[cyclobutane-1,6′-pyrrolo[3,2-c]pyridin]-2′-yl)pyridin-2-yl]propanamide] yielded an IC50 above 20 µM. As to `Cc1cn(C)c(=O)c2c(-c3ccc(F)cc3)c(-c3ccnc(NC(=O)C(CC(F)F)c4ccc(F)cc4)c3)[nH]c12` (racemic) [Example 034, 4,4-difluoro-2-(4-fluorophenyl)-N-{4-[3-(4-fluorophenyl)-5,7-dimethyl-4-oxo-4,5-dihydro-1H-pyrrolo[3,2-c]pyridin-2-yl]pyridin-2-yl}butanamide], the IC50 was above 20 µM. `Cc1cn(C)c(=O)c2c(-c3ccccc3)c(-c3ccnc(NC(=O)C(C)c4ccc(F)cc4)c3)[nH]c12` (racemic) [Example 038, N-[4-(5,7-dimethyl-4-oxo-3-phenyl-4,5-dihydro-1H-pyrrolo[3,2-c]pyridin-2-yl)pyridin-2-yl]-2-(4-fluorophenyl)propanamide] displayed an IC50 above 20 µM. `CC1(C)CNC(=O)c2c1[nH]c(-c1ccnc(NC(=O)C(CC(F)F)c3ccc(F)cc3)c1)c2-c1ccccc1` (single isomer, unassigned) [Example 044, N-[4-(7,7-dimethyl-4-oxo-3-phenyl-4,5,6,7-tetrahydro-1H-pyrrolo[3,2-c]pyridin-2-yl)pyridin-2-yl]-4,4-difluoro-2-(4-fluorophenyl)butanamide] yielded an IC50 above 20 µM.

Molecule `CC(C(=O)Nc1cc(-c2[nH]c3c(c2-c2ccccc2)C(=O)NCC3(C)C)ccn1)c1ccc(F)cc1` (racemic) [Example 046, N-[4-(7,7-dimethyl-4-oxo-3-phenyl-4,5,6,7-tetrahydro-1H-pyrrolo[3,2-c]pyridin-2-yl)pyridin-2-yl]-2-(4-fluorophenyl)propanamide] yielded an IC50 above 20 µM. Turning to `CN1CC(CC2CC2)c2[nH]c(-c3ccnc(NC(=O)Cc4ccc(F)cc4)c3)c(-c3ccccc3)c2C1=O` (racemic) [Example 055, N-{4-[7-(cyclopropylmethyl)-5-methyl-4-oxo-3-phenyl-4,5,6,7-tetrahydro-1H-pyrrolo[3,2-c]pyridin-2-yl]pyridin-2-yl}-2-(4-fluorophenyl)acetamide], the IC50 came to 3.43 µM.

Staying with this assay, now noted: read-out: EGFR Wildtyp 2 mM ATP IC50 [mol/l] (median), median or individual measurements.
Regarding `CC(C(=O)Nc1cc(-c2[nH]c3c(c2-c2ccccc2)C(=O)N(C)C2(CCC2)C3)ccn1)c1ccc(F)cc1` (single isomer, unassigned; (+)) [Example 054, (+)-2-(4-fluorophenyl)-N-[4-(5′-methyl-4′-oxo-3′-phenyl-1′,4′,5′,7′-tetrahydrospiro[cyclobutane-1,6′-pyrrolo[3,2-c]pyridin]-2′-yl)pyridin-2-yl]propanamide], the IC50 was above 20 µM. Consider `CC1(C)CNC(=O)c2c1[nH]c(-c1ccnc(NC(=O)C(CC(F)F)c3ccc(F)cc3)c1)c2-c1ccccc1` (single isomer, unassigned) [Example 045, N-[4-(7,7-dimethyl-4-oxo-3-phenyl-4,5,6,7-tetrahydro-1H-pyrrolo[3,2-c]pyridin-2-yl)pyridin-2-yl]-4,4-difluoro-2-(4-fluorophenyl)butanamide], for which the IC50 was above 20 µM. As for `CC(C(=O)Nc1cc(-c2[nH]c3c(c2-c2ccccc2)C(=O)N(C)CC3CC(F)(F)F)ccn1)c1ccc(F)cc1` (stereo not shown) [Example 013], the IC50 is above 20 µM.

Consider `Cn1cc(CC2CC2)c2[nH]c(-c3ccnc(NC(=O)Cc4ccc(F)cc4)c3)c(-c3ccccc3)c2c1=O` [Example 056, N-{4-[7-(cyclopropylmethyl)-5-methyl-4-oxo-3-phenyl-4,5-dihydro-1H-pyrrolo[3,2-c]pyridin-2-yl]pyridin-2-yl}-2-(4-fluorophenyl)acetamide], for which the IC50 is above 20 µM. Still for that read-out and setting: in the case of `CC(C(=O)Nc1cc(-c2[nH]c3c(c2-c2ccccc2)C(=O)N(C)CC3CC2CC2)ccn1)c1ccc(F)cc1` (stereo not shown) [Example 057] it was above 20 µM.

`CC1CN(C)C(=O)c2c1[nH]c(-c1ccnc(NC(=O)C(C)c3ccc(F)cc3)c1)c2-c1ccccc1` (stereo not shown) [Example 037]: the IC50 is above 20 µM.

Regarding `CN1CCc2[nH]c(-c3ccnc(NC(=O)C(CC(F)F)c4ccc(F)cc4)c3)c(-c3cccnc3)c2C1=O` (single isomer, unassigned) [Example 011, 4,4-difluoro-2-(4-fluorophenyl)-N-{4-[5-methyl-4-oxo-3-(pyridin-3-yl)-4,5,6,7-tetrahydro-1H-pyrrolo[3,2-c]pyridin-2-yl]pyridin-2-yl}butanamide], the IC50 is above 20 µM. The same measure, in the same setting: for `CC(C(=O)Nc1cc(-c2[nH]c3c(CC(F)(F)F)cn(C)c(=O)c3c2-c2ccc(F)cc2)ccn1)c1ccc(F)cc1` (single isomer, unassigned; (+)) [Example 024, (+)-2-(4-fluorophenyl)-N-{4-[3-(4-fluorophenyl)-5-methyl-4-oxo-7-(2,2,2-trifluoroethyl)-4,5-dihydro-1H-pyrrolo[3,2-c]pyridin-2-yl]pyridin-2-yl}propanamide] the value was above 20 µM; for `CN1CC(CC(F)(F)F)c2[nH]c(-c3ccnc(NC(=O)C(CC(F)F)c4ccc(F)cc4)c3)c(-c3ccc(F)cc3)c2C1=O` (stereo not shown) [Example 025], above 20 µM.

In the case of `CN1CC(CC2CC2)c2[nH]c(-c3ccnc(NC(=O)C(CC(F)F)c4ccc(F)cc4)c3)c(-c3ccccc3)c2C1=O` (stereo not shown) [Example 059], the IC50 is above 20 µM.

Take `CC1CN(C)C(=O)c2c1[nH]c(-c1ccnc(NC(=O)C(CC(F)F)c3ccc(F)cc3)c1)c2-c1ccccc1` (stereo not shown) [Example 039]: the IC50 is above 20 µM. For `CC1CN(C)C(=O)c2c1[nH]c(-c1ccnc(NC(=O)C(C)c3ccc(F)cc3)c1)c2-c1ccc(F)cc1` (stereo not shown) [Example 029], the IC50 is above 20 µM. `CN1CC(CC(F)(F)F)c2[nH]c(-c3ccnc(NC(=O)C(CC(F)F)c4ccc(F)cc4)c3)c(-c3ccccc3)c2C1=O` (stereo not shown) [Example 017]: the IC50 was above 20 µM. As for `CC(C(=O)Nc1cc(-c2[nH]c3c(c2-c2ccc(F)cc2)C(=O)N(C)CC3CC(F)(F)F)ccn1)c1ccc(F)cc1` (stereo not shown) [Example 021], the IC50 is above 20 µM.
